Measurements from publication PMC11206207 (Chemical Science, 2024).
pEC50, pKd: −log10 of the molar value. Numbered stars: 1 amine (or outer) side, 2 acyl side, 3 side chain; on linkers, the order of the positions; unused ones are H or OH. Bridge positions count the residues as written; N and C are the ends. Ends that are not written are not given here. Peptide text beside a SMILES is read from it. * marks the point of attachment. FITC = O=C1OC2(c3ccc(O)cc3Oc3cc(O)ccc32)c2ccc(NC(=S)*)cc21; X1 = O=C(C[*:2])Nc1cc(NC(=O)C[*:3])cc(C(=O)[*:1])c1; AEEA = NCCOCCOCC(=O)O

Tests used:
TEAD4 = TEAD4 (Homo sapiens, UniProt Q15561); assay: Fluorescence polarization binding assay of FAM/FITC-labelled peptides to TEAD4
AGS cells = assay: Cell viability assay; format: cell-based; conditions: 24 hours

TEAD4, sequence (Q15561 210-434): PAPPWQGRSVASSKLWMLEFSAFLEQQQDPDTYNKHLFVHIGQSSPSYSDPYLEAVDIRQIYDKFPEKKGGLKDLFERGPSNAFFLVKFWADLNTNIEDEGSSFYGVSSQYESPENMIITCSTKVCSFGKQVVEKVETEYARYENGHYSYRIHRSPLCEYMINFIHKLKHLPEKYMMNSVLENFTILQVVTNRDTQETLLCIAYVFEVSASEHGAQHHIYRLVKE

## CC(C)C[C@H](NC(=O)[C@H](CO)NC(=O)[C@H](Cc1ccccc1)NC(=O)[C@H](CC(=O)O)NC(=O)[C@H](Cc1c[nH]c2ccccc12)NC(=O)[C@H](Cc1ccccc1)NC(=O)[C@H](CO)NC(=O)[C@H](CCCCN)NC(=O)[C@@H]1CCCN1C(=O)[C@H](Cc1c[nH]c2ccccc12)NC(=O)[C@H](CCC(N)=O)NC(=O)CNC(=O)[C@@H](NC(=O)[C@H](CCCCN)NC(=O)[C@@H]1CCCN1C(=O)[C@H](CC(C)C)NC(=O)COCCOCCNC(=S)Nc1ccc2c(c1)C(=O)OC21c2ccc(O)cc2Oc2cc(O)ccc21)[C@@H](C)O)C(=O)NCC(=O)N[C@@H](CS)C(=O)NCC(=O)NCC(=O)N[C@@H](CO)C(=O)NCC(N)=O [linear version of 15] ({FITC-AEEA}-LPKTGQWPKSFWDFSLGCGGSG-NH2; N-terminus and C-terminus assumed)
TEAD4
  pKd: 5.20

## CC(=O)N[C@@H](CC(C)C)C(=O)N1CCC[C@H]1C(=O)N[C@H]1CCCCNC(=O)c2cc3cc(c2)NC(=O)CSC[C@H](NC(=O)[C@H](CO)NC(=O)[C@H](C(C)C)NC(=O)[C@H](Cc2c[nH]c4ccccc24)NC(=O)[C@H](CO)NC(=O)[C@H]([C@@H](C)O)NC(=O)[C@H](CC(C)C)NC(=O)CNC(=O)[C@H]([C@@H](C)O)NC1=O)C(=O)N[C@@H](Cc1c[nH]cn1)C(=O)N[C@@H](Cc1ccccc1)C(=O)N[C@@H](CC(C)C)C(=O)N[C@@H](CCCNC(=N)N)C(=O)N[C@@H](CO)C(=O)N[C@@H](CC(C)C)C(=O)N[C@H](C(=O)NCC(=O)NCC(=O)N[C@@H](CO)C(=O)NCC(N)=O)CSCC(=O)N3 [compound 16] (Ac-LPKTGLTSWVSCHFLRSLCGGSG-NH2; linker 3-12-19 via X1)
AGS cells; at 10 μM, in presence of PDPA nanocarrier
  inhibitory activity on AGS cells: little inhibitory inhibition

## PKKKRKVDPKKKRKVDPKKKRKVNGLPKTGLTSWVSCHFLRSLCGGSG-NH2 (linker 28-37-44 via X1; C-terminus assumed) [16-NLS]
AGS cells; read-out: cellular inhibitory activity EC50, AGS cells
  pEC50: 5.08
